Source: PMC9785397, “Exploiting Conserved Quorum Sensing Signals in Streptococcus mutans and Streptococcus pneumoniae” (Microorganisms, 2022)
≈ marks a conversion by molar mass, not a printed value. Counter-ions that a name gives are not always drawn.

How the values were obtained:
S. mutans = test: microbe, parasite or virus in culture; assay type: cell-based, Streptococcus mutans; conditions: for Minimum inhibitory concentration (MIC), S. mutans: peptides 0–50 μM, 37 °C, microaerophilic, A620 nm, three separate experiments
Description: (§1) Streptococcus mutans Clarke (strain designation NCTC 10449), Pseudomonas aeruginosa (Schroeter) Migula (strain designation PAO1), Fusobacterium nucleatum, subspecies nucleatum (strain VPI 4355), and Porphyromonas gingivalis (strain 2561) were purchased from ATCC (LGC Standards Srl, Milan, Italy). Streptococcus mitis, Streptococcus oralis, and Streptococcus sanguinis were obtained from clinical isolates and characterized by morphological, biochemical, and molecular typing. S. mutans, S. mitis, S. oralis, and S. sanguinis were maintained in Brain Heart Infusion (BHI) broth or agar under microaerophilic conditions. P. aeruginosa was maintained in trypticase soy (TS) agar or broth. F. nucleatum was maintained in TS agar or broth with defibrinated sheep blood under anaerobic conditions. P. gingivalis was maintained in ATCC Medium 2722 supplemented with TS broth or agar under anaerobic conditions. Before the experiments, bacterial cultures were inoculated in fresh media (dilution 1:100) and grown for 16 h at 37 °C.
(§2) The antimicrobial activities of the tested peptides were assessed through the determination of the minimum inhibitory concentration (MIC) standardized by the Clinical and Laboratory Standards Institute. Bacterial inocula were diluted in 10 mL of MHB […]. The concentration of the bacteria was adjusted to 0.5 McFarland standard, and the bacteria were dispensed in 96-well microtiter plates (final bacterial concentration: 1 × 10^4 CFU/well). Peptides were dissolved in sterile water (stock concentration: 2 mM) and added at final concentrations ranging from 0 to 50 µM. Plates were incubated at 37 °C for 16 h. At the end of incubation, bacterial growth was recorded using a microplate reader (Varioskan Lux Reader; Thermo Fisher Scientific, Milan, Italy) by quantifying the adsorption at 620 nm. Cultures were then opportunely diluted and seeded on agar plates. Bacterial cultures inoculated with the highest final concentration of the vehicle (sterile water) or chlorhexidine hydrochloride salt (CHX, concentration range: 0.05 to 500 μg/mL; Merck, Milan, Italy) were included as controls in each test. Experiments were performed in triplicate.

S. mitis = test: microbe, parasite or virus in culture; assay type: cell-based, Streptococcus mitis; conditions: for Minimum inhibitory concentration (MIC), S. mitis: peptides 0–50 μM, 37 °C, microaerophilic, A620 nm, three separate experiments
Description: as §1, §2

S. oralis = test: microbe, parasite or virus in culture; assay type: cell-based, Streptococcus oralis; conditions: for Minimum inhibitory concentration (MIC), S. oralis: peptides 0–50 μM, 37 °C, microaerophilic, A620 nm, three separate experiments
Description: as §1, §2

S. sanguinis = test: microbe, parasite or virus in culture; assay type: cell-based, Streptococcus sanguinis; conditions: for Minimum inhibitory concentration (MIC), S. sanguinis: peptides 0–50 μM, 37 °C, microaerophilic, A620 nm, three separate experiments
Description: as §1, §2

P. aeruginosa = test: microbe, parasite or virus in culture; assay type: cell-based, Pseudomonas aeruginosa; conditions: 16 h; for Minimum inhibitory concentration (MIC), P. aeruginosa: peptides 0–50 μM, 37 °C, aerobic, A620 nm, three separate experiments
Description: as §1, §2

F. nucleatum = test: microbe, parasite or virus in culture; assay type: cell-based, Fusobacterium nucleatum; conditions: 16 h; for Minimum inhibitory concentration (MIC), F. nucleatum: peptides 0–50 μM, 37 °C, anaerobic, A620 nm, three separate experiments
Description: as §1, §2

P. gingivalis = test: microbe, parasite or virus in culture; assay type: cell-based, Porphyromonas gingivalis; conditions: 16 h; for Minimum inhibitory concentration (MIC), P. gingivalis: peptides 0–50 μM, 37 °C, anaerobic, A620 nm, three separate experiments
Description: as §1, §2

[1] = system: S. mutans bacteriocin production against S. mitis; test: Bacteriocin overlay assay, S. mutans spotted on S. mitis; assay type: cell-based, Streptococcus mutans; conditions: analog 20 μM with CSP1 20 μM, 16 h, p < 0.05 vs CSP1
Description: (§3) During the formation of complex biofilm such as dental plaque, the ability of S. mutans to compete with other commensal species determines the success of the cariogenesis process. S. mutans uses antibacterial peptides, namely, bacteriocins, to overcome and subvert the composition of dental microbiota. We investigated the production of bacteriocins using the overlay assay. Overnight cultures of S. mitis, S. oralis, S. sanguinis, P. aeruginosa, F. nucleatum, or P. gingivalis were diluted 1:100 in BHI or TS broth and incubated at 37 °C until they reached an OD620 of 0.3. Cultures were added with agar (BD Difco^TM Agar) at the final concentration of 1.5% w/v and transferred in plates. Overnight cultures of S. mutans were diluted 1:100 in BHI and added with peptides (20 μM) or the vehicle with or without CSP1. Culture media were supplemented with agar to reach the final concentration of 0.7% w/v. The solutions were spotted on the surface of agar plates prepared as described above. The plates were kept on the benchtop for 30 min, allowing the agar containing S. mutans to solidify, and then incubated at 37 °C for 16 h under microaerophilic or anaerobic conditions, as required.
(§4) Spots (10 for each experimental group) were acquired and analyzed using NIH Image J software (version 1.53t August 2022, https://imagej.nih.gov/ij/index.html; accessed on 7 September 2022). The appearance of a clear area on the plate (bacterial growth inhibition) was evaluated as indicative of bacteriocin activity. The diameters of the area were measured in a blinded fashion.

[2] = system: S. mutans bacteriocin production against S. oralis; test: Bacteriocin overlay assay, S. mutans spotted on S. oralis; assay type: cell-based, Streptococcus mutans; conditions: analog 20 μM with CSP1 20 μM, 16 h, p < 0.05 vs CSP1
Description: as §3, §4

[3] = system: S. mutans bacteriocin production against S. sanguinis; test: Bacteriocin overlay assay, S. mutans spotted on S. sanguinis; assay type: cell-based, Streptococcus mutans; conditions: analog 20 μM with CSP1 20 μM, 16 h, p < 0.05 vs CSP1
Description: as §3, §4

bip gene = test: qRT-PCR, bip gene expression; assay type: cell-based, Streptococcus mutans; conditions: analog 20 μM with CSP1 20 μM, 8 h, qPCR, p < 0.05 vs CSP1
Description: (§5) S. mutans was cultured in BHI supplemented with peptides or the vehicle. Cultures were centrifuged, and total RNA was isolated and purified from the bacterial pellets using the GRS Total RNA Kit—Bacteria (GK16.0100; GRISP Research Solution, Porto, Portugal), following the manufacturer’s instructions. Purified RNA was subjected to DNase I treatment to remove contaminating DNA. The RNA yield and purity were assessed by measuring the absorbance, and only samples with a ratio of 260/280 nm in the 1.8–2 range were used. cDNA was generated using the cDNA RT kit with an RNAse inhibitor (Applied Biosystems; Monza, Milan). Quantitative PCR (qRT-PCR) was performed using SYBR green mixture (iScript One Step RT-PCR kit; Bio-Rad, Segrate, Milan) to determine the transcript levels of genes using the oligonucleotides listed in Table 3. The gyrA gene served as the housekeeping gene.

comD gene = test: qRT-PCR, comD gene expression; assay type: cell-based, Streptococcus mutans; conditions: analog 20 μM with CSP1 20 μM, planktonic, 8 h, qPCR
Description: as §5

comE gene = test: qRT-PCR, comE gene expression; assay type: cell-based, Streptococcus mutans; conditions: analog 20 μM with CSP1 20 μM, planktonic, 8 h, qPCR
Description: as §5

[4] = system: S. mutans biofilm formation; test: Biofilm formation (crystal violet); assay type: cell-based, Streptococcus mutans; conditions: CHX 0.63 μg/mL, 72 h, stimuli renewed every 24 h
Description: (§6) Overnight cultures of S. mutans were diluted 1:1000 in a 1:10 solution of BHI broth supplemented with 0.2% w/v sucrose and artificial saliva (AS; 1.3 g/L KCl, 0.1 g/L NaCl, 0.05 g/L MgCl, 0.1 g/L CaCl2, 0.5 g/L peptone, 25 μg/L NaF, 27 mg/L KH2PO4, 35 mg/L K2HPO4, pH 6.8; all reagents purchased from Merck). Cultures were seeded into 96-well polystyrene microtiter plates (200 µL/well) and incubated at 37 °C under static conditions. To identify the time of incubation that is useful in obtaining a mature biofilm, plates were incubated for 16, 24, 48, 72, or 96 h. Half of the media was renewed every 24 h. At the end of incubations, the wells were emptied and washed three times with sterile PBS to remove planktonic cells. Adhering cells were incubated with resazurin 0.01% in the dark at 37 °C for 20 min [30]. In metabolically active cells, the non-fluorescent resazurin was reduced to highly fluorescent resorufin by dehydrogenase enzymes. The relative fluorescence units (RFU) of resorufin were measured using a fluorimeter (Ex = 530–570 nm, Em = 590–620 nm; Varioskan Lux Reader; Thermo Fisher Scientific).
(§7) To assess the effect of the compounds on biofilm formation or mature biofilm, cultures of S. mutans were prepared as described above. […] The optical density was measured at 570 nm using a microplate reader (Varioskan Lux Reader; Thermo Fisher Scientific). […]

S. mutans mature biofilm = test: Mature biofilm (crystal violet); assay type: cell-based, Streptococcus mutans; conditions: CHX 0.63 μg/mL added at 48 h, biofilm assessed 24 h later
Description: as §6, §7

[5] = CHX, microdilution method and colony counting assay

Compound	Minimum inhibitory concentration (MIC), S. mutans (S. mutans; 16 h) [µM]	Minimum inhibitory concentration (MIC), S. mitis (S. mitis; 16 h) [µM]	Minimum inhibitory concentration (MIC), S. oralis (S. oralis; 16 h) [µM]	Minimum inhibitory concentration (MIC), S. sanguinis (S. sanguinis; 16 h) [µM]	Minimum inhibitory concentration (MIC), P. aeruginosa (P. aeruginosa) [µM]	Minimum inhibitory concentration (MIC), F. nucleatum (F. nucleatum) [µM]	Minimum inhibitory concentration (MIC), P. gingivalis (P. gingivalis) [µM]	Effect on the CSP1-induced antibacterial effects against S. mitis [1]	Effect on the CSP1-induced antibacterial effects against S. oralis [2]	Effect on the CSP1-induced antibacterial effects against S. sanguinis [3]	Effect on the CSP1-induced expression of bip (bip gene)	Effect on the expression of comD induced by CSP1 (comD gene)	Effect on the expression of comE induced by CSP1 (comE gene)	further results
CC[C@H](C)[C@H](NC(=O)[C@H](Cc1ccccc1)NC(=O)[C@H](CC(=O)O)NC(=O)[C@H](CCCNC(=N)N)NC(=O)[C@H](Cc1ccccc1)NC(=O)[C@H](Cc1ccccc1)NC(=O)[C@H](CCCCNC(C)=O)NC(=O)[C@H](CO)NC(=O)[C@H](CC(C)C)NC(=O)[C@H](CCCNC(=N)N)NC(=O)[C@H](CCSC)NC(=O)[C@H](CCC(=O)O)NC(C)=O)C(=O)N[C@@H](CC(C)C)C(=O)N[C@@H](CCC(N)=O)C(=O)N[C@@H](CCCNC(=N)N)C(=O)N[C@@H](CCCCNC(C)=O)C(=O)N[C@@H](CCCCNC(C)=O)C(=O)O [Ac4CSP1]	26 (≈ 62.7 µg/mL)	28 (≈ 67.5 µg/mL)	23 (≈ 55.5 µg/mL)	25 (≈ 60.3 µg/mL)	>50	>50	>50	significantly reduced	significantly reduced	significantly reduced	significantly reduced	inhibited the expression	inhibited the expression	
CC[C@H](C)[C@H](NC(=O)[C@H](Cc1ccccc1)NC(=O)[C@H](CC(=O)O)NC(=O)[C@H](CCCNC(=N)N)NC(=O)[C@H](Cc1ccccc1)NC(=O)[C@H](Cc1ccccc1)NC(=O)[C@H](CCCCN)NC(=O)[C@H](CO)NC(=O)[C@H](CC(C)C)NC(=O)[C@H](CCCNC(=N)N)NC(=O)[C@H](CCSC)NC(=O)[C@H](CCC(=O)O)NC(C)=O)C(=O)N[C@@H](CC(C)C)C(=O)N[C@@H](CCC(N)=O)C(=O)N[C@@H](CCCNC(=N)N)C(=O)N[C@@H](CCCCN)C(=O)N[C@@H](CCCCN)C(=O)O [AcCSP1]	20 (≈ 45.7 µg/mL)	24 (≈ 54.8 µg/mL)	21 (≈ 48 µg/mL)	27 (≈ 61.7 µg/mL)	>50	>50	>50	significantly reduced	significantly reduced	significantly reduced	significantly reduced	inhibited the expression	inhibited the expression	
[H]/N=C(\N/C(=N/[H])NCCCCCCNC(=N)NC(=N)Nc1ccc(Cl)cc1)Nc1ccc(Cl)cc1 [CHX, chlorhexidine hydrochloride salt]														Concentration inducing bactericidal activity, S. mutans (S. mutans; [5]): below 1 μg/mL; MIC (S. mutans; Streptococcus mutans, 16 h, read-out: Minimum inhibitory concentration (MIC), S. mutans): 0.63 µg/mL; Concentration inducing bactericidal activity, S. mitis (S. mitis; [5]): below 1 μg/mL; MIC (S. mitis; Streptococcus mitis, 16 h, read-out: Minimum inhibitory concentration (MIC), S. mitis): 0.5 µg/mL; Concentration inducing bactericidal activity, S. oralis (S. oralis; [5]): below 1 μg/mL; MIC (S. oralis; Streptococcus oralis, 16 h, read-out: Minimum inhibitory concentration (MIC), S. oralis): 0.57 µg/mL; Concentration inducing bactericidal activity, S. sanguinis (S. sanguinis; [5]): below 1 μg/mL; MIC (S. sanguinis; Streptococcus sanguinis, 16 h, read-out: Minimum inhibitory concentration (MIC), S. sanguinis): 0.69 µg/mL; MIC (P. aeruginosa; Pseudomonas aeruginosa, read-out: Minimum inhibitory concentration (MIC), P. aeruginosa): 1.68 µg/mL; MIC (F. nucleatum; Fusobacterium nucleatum, read-out: Minimum inhibitory concentration (MIC), F. nucleatum): 300 µg/mL; MIC (P. gingivalis; Porphyromonas gingivalis, read-out: Minimum inhibitory concentration (MIC), P. gingivalis): 254 µg/mL; Reduction of biofilm formation vs. vehicle [4]: 70%; Reduction of mature biofilm vs. vehicle (S. mutans mature biofilm): 54%
